Results published in paper PMC8305664, “Knockdown of a β-Adrenergic-Like Octopamine Receptor Affects Locomotion and Reproduction of Tribolium castaneum” (International Journal of Molecular Sciences, 2021).

Target: T1, TcOctβ2R (β-adrenergic-like octopamine receptor) (Tribolium castaneum, UniProt N1NSX1)
T1 construct: full ORF (411 amino acids), pcDNA3.1(+), transiently expressed in HEK 293 cells
T1 sequence (N1NSX1 1-411): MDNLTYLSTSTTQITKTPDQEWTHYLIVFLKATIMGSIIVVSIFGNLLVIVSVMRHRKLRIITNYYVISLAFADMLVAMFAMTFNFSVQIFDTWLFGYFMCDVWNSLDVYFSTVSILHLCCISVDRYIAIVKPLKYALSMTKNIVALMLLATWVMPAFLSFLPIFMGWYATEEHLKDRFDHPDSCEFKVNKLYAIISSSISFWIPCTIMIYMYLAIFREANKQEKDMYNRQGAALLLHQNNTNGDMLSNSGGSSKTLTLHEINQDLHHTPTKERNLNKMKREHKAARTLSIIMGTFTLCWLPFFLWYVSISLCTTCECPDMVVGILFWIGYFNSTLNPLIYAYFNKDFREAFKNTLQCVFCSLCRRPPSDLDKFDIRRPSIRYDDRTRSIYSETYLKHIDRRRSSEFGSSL
Test: GloSensor cAMP assay in HEK […] cells expressing the receptor (agonist)
Format: cell-based

Row | Compound | EC50 [nM]
1 | c1ccc2c(CC3=NCCN3)cccc2c1 [naphazoline] | 7.1
2 | NCC(O)c1ccc(O)cc1 (stereo not drawn) [octopamine] | 28
3 | NCCc1ccc(O)cc1 [tyramine] | 200
